# Laboratory results as given in ChEMBL document CHEMBL1143091, “Synthesis and SAR studies of biaryloxy-substituted triazoles as antifungal agents” (2008).
# Legend:
# Format in all cases: functional
# [1] = system: Candida albicans; experiment: Antimicrobial activity against Candida albicans ATCC 76615
# [2] = system: Candida parapsilosis; experiment: Antimicrobial activity against […] isolates; conditions: Lodderomyces parapsilosis
# [3] = system: Candida tropicalis; experiment: Antimicrobial activity against Candida tropicalis isolates
# [4] = system: Cryptococcus neoformans; experiment: Antimicrobial activity against Cryptococcus neoformans ATCC 32609
# [5] = system: Aspergillus fumigatus; experiment: Antimicrobial activity against Aspergillus fumigatus isolates
# [6] = system: Trichophyton rubrum; experiment: Antimicrobial activity against Trichophyton rubrum isolates
# [7] = system: Nannizzia gypsea; experiment: Antimicrobial activity against Microsporum gypseum isolates
# [8] = system: Fonsecaea compacta; experiment: Antimicrobial activity against Fonsecaea compacta isolates
smiles,measurement,setting,value
ON=Cc1ccc(-c2ccc(OCC(O)(Cn3cncn3)c3ccc(F)cc3F)cc2)cc1 (stereo not drawn),MIC,[1],0.0039 µg/mL
same,MIC,[2],0.0039 µg/mL
same,MIC,[3],0.0156 µg/mL
same,MIC,[4],1 µg/mL
same,MIC,[5],> 64 µg/mL
same,MIC,[6],1 µg/mL
same,MIC,[7],1 µg/mL
same,MIC,[8],1 µg/mL
